Source: patent US6706663B2, “Herbicidal 3-heterocyclic substituted benzisothiazole and benzisoxazole compounds” (Wyeth, priority 2000, dated 2004)

Columns and labels:
[1] = test system: GLXMAW (Soybean, Williams); assay: Postemergence herbicidal evaluation; type: in vivo, Glycine max, (L.) Merr. cv Williams
Summary of the method: (§1)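 Seedlings grown about two weeks in flats, sprayed, then kept under standard greenhouse care. Rated visually 4–5 weeks after treatment on a 0–9 scale (stand, vigour, malformation, size, chlorosis, overall appearance) relative to untreated control; repeat tests averaged.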

[2] = test system: CHEAL (Chenopodium album); assay: Postemergence herbicidal evaluation; type: in vivo, L.
Summary of the method: as §1

[3] = test system: AMBEL (Ambrosia artemisifolia); assay: Postemergence herbicidal evaluation; type: in vivo, L.
Summary of the method: as §1

[4] = test system: CASOB (Cassia obtusifolia); assay: Postemergence herbicidal evaluation; type: in vivo, L.
Summary of the method: as §1

[5] = test system: ZEAMX (Corn, Field); assay: Preemergence herbicidal evaluation; type: in vivo, Zea mays, L.; conditions: preemergence, rated 4-5 weeks after treatment
[6] = test system: GALAP (Galium aparine); assay: Postemergence herbicidal evaluation; type: in vivo
Summary of the method: as §1

[7] = test system: ECHCG (Echinochloa crus-galli); assay: Postemergence herbicidal evaluation; type: in vivo, (L.) Beau
Summary of the method: as §1

[8] = test system: ZEAMX (Corn, Field); assay: Postemergence herbicidal evaluation; type: in vivo, Zea mays, L.
Summary of the method: as §1

[9] = test system: CYPSE (Cyperus serotinus); assay: Flooded paddy, preemergence weed control; type: in vivo, Rottb.; conditions: rated 3-4 weeks after treatment, 0-9 rating scale
Summary of the method: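 Herbicidal effect was scored visually on a 0–9 scale against an untreated control 3–4 weeks after treatment. Compounds were applied preemergence as 50/50 v/v aqueous/acetone mixtures into flood water (1.5–3 cm deep over silt loam), at roughly 0.0080 to 0.1250 kg/ha active ingredient.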

[10] = test system: IPOHE (Ipomoea hederacea); assay: Postemergence herbicidal evaluation; type: in vivo, (L.) Jacq.
Summary of the method: as §1

[11] = test system: ORYSAT (Rice, Tebonnet); assay: Preemergence herbicidal evaluation; type: in vivo, Oryza sativa, (L.) Tebonnet; conditions: preemergence, rated 4-5 weeks after treatment
[12] = test system: ECHORC (Echinochloa oryzoides); assay: Flooded paddy, preemergence weed control; type: in vivo, Echinochloa oryzoides (Ard.) Fritsch.; conditions: rated 3-4 weeks after treatment, 0-9 rating scale
Summary of the method: (§2)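 Preemergence, flooded: propagules planted at 0.5 cm depth in silt loam, water level maintained at 1.5 to 3 cm over soil, containers kept on greenhouse benches. Activity scored 0-9 by eye relative to a control plant.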

[13] = test system: GLXMAW (Soybean, Williams); assay: Preemergence herbicidal evaluation; type: in vivo, Glycine max, (L.) Merr. cv Williams; conditions: preemergence, rated 4-5 weeks after treatment
[14] = test system: GALAP (Galium aparine); assay: Preemergence herbicidal evaluation; type: in vivo; conditions: preemergence, rated 4-5 weeks after treatment
Summary of the method: (§3)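 Applied before emergence as an aqueous acetone spray over seeded soil. Read-out: 0–9 visual rating covering plant stand, vigor, size, chlorosis, malformation and overall appearance compared with control, taken 4–5 weeks after spraying.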

[15] = test system: TRZAWR (Wheat, Winter, cv Riband); assay: Preemergence herbicidal evaluation; type: in vivo, Triticum aestivum; conditions: preemergence, rated 4-5 weeks after treatment
Summary of the method: as §3

[16] = test system: CHEAL (Chenopodium album); assay: Preemergence herbicidal evaluation; type: in vivo, L.; conditions: preemergence, rated 4-5 weeks after treatment
Summary of the method: as §3

[17] = test system: AMBEL (Ambrosia artemisifolia); assay: Preemergence herbicidal evaluation; type: in vivo, L.; conditions: preemergence, rated 4-5 weeks after treatment
Summary of the method: as §3

[18] = test system: CASOB (Cassia obtusifolia); assay: Preemergence herbicidal evaluation; type: in vivo, L.; conditions: preemergence, rated 4-5 weeks after treatment
Summary of the method: as §3

[19] = test system: IPOHE (Ipomoea hederacea); assay: Preemergence herbicidal evaluation; type: in vivo, (L.) Jacq.; conditions: preemergence, rated 4-5 weeks after treatment
[20] = test system: ABUTH (Abutilon theophrasti); assay: Postemergence herbicidal evaluation; type: in vivo, Medic.
Summary of the method: as §1

[21] = test system: CYPIR (Cyperus iria); assay: Flooded paddy, preemergence weed control; type: in vivo; conditions: rated 3-4 weeks after treatment, 0-9 rating scale
Summary of the method: as §2

COC(=O)C(C)Oc1ccsc1-c1nsc2ccc(-n3c(=O)cc(C(F)(F)F)n(C)c3=O)cc12 (stereo not drawn) [Compound 23, methyl 2-[(2-[5-[3,6-dihydro-3-methyl-2,6-dioxo-4-(trifluoromethyl)-1(2H)-pyrimidinyl]-1,2-benzisothiazol-3-yl]-3-thienyl]oxy]propionate]
9.0: Postemergence herbicidal rating, AMBEL ([3]; rate 0.1250 kg/ha) | herbicidal rating, CYPSE ([9]; rate 0.1250 kg/ha) | Postemergence herbicidal rating, IPOHE ([10]; rate 0.1250 kg/ha) | CHEAL preemergence herbicidal rating ([16]; Rate 0.0620 kg/ha) | AMBEL preemergence herbicidal rating ([17]; Rate 0.1250 kg/ha) | AMBEL preemergence herbicidal rating ([17]; Rate 0.2500 kg/ha) | Postemergence herbicidal rating, ABUTH ([20]; rate 0.0320 kg/ha) | Postemergence herbicidal rating, ABUTH ([20]; rate 0.0620 kg/ha) | Postemergence herbicidal rating, ABUTH ([20]; rate 0.1250 kg/ha) | herbicidal rating, CYPIR ([21]; rate 0.0320 kg/ha) | herbicidal rating, CYPIR ([21]; rate 0.1250 kg/ha)
4.0: Postemergence herbicidal rating, GLXMAW ([1]; rate 0.0320 kg/ha) | Postemergence herbicidal rating, CHEAL ([2]; rate 0.0620 kg/ha) | CHEAL preemergence herbicidal rating ([16]; Rate 0.2500 kg/ha)
5.0: Postemergence herbicidal rating, GLXMAW ([1]; rate 0.0620 kg/ha) | Postemergence herbicidal rating, GLXMAW ([1]; rate 0.1250 kg/ha) | Postemergence herbicidal rating, ECHCG ([7]; rate 0.1250 kg/ha) | Postemergence herbicidal rating, ZEAMX ([8]; rate 0.0320 kg/ha) | Postemergence herbicidal rating, IPOHE ([10]; rate 0.0620 kg/ha)
7.0: Postemergence herbicidal rating, ZEAMX ([8]; rate 0.1250 kg/ha)
0.0: Postemergence herbicidal rating, CASOB ([4]; rate 0.0320 kg/ha) | Postemergence herbicidal rating, CASOB ([4]; rate 0.0620 kg/ha) | ZEAMX preemergence herbicidal rating ([5]; Rate 0.0620 kg/ha) | ZEAMX preemergence herbicidal rating ([5]; Rate 0.1250 kg/ha) | ZEAMX preemergence herbicidal rating ([5]; Rate 0.2500 kg/ha) | Postemergence herbicidal rating, ECHCG ([7]; rate 0.0320 kg/ha) | herbicidal rating, CYPSE ([9]; rate 0.0320 kg/ha) | ORYSAT preemergence herbicidal rating ([11]; Rate 0.0620 kg/ha) | ORYSAT preemergence herbicidal rating ([11]; Rate 0.1250 kg/ha) | ORYSAT preemergence herbicidal rating ([11]; Rate 0.2500 kg/ha) | herbicidal rating, ECHORC ([12]; rate 0.0320 kg/ha) | GLXMAW preemergence herbicidal rating ([13]; Rate 0.0620 kg/ha) | GLXMAW preemergence herbicidal rating ([13]; Rate 0.1250 kg/ha) | GLXMAW preemergence herbicidal rating ([13]; Rate 0.2500 kg/ha) | GALAP preemergence herbicidal rating ([14]; Rate 0.0620 kg/ha) | GALAP preemergence herbicidal rating ([14]; Rate 0.1250 kg/ha) | TRZAWR preemergence herbicidal rating ([15]; Rate 0.0620 kg/ha) | TRZAWR preemergence herbicidal rating ([15]; Rate 0.1250 kg/ha) | TRZAWR preemergence herbicidal rating ([15]; Rate 0.2500 kg/ha) | CHEAL preemergence herbicidal rating ([16]; Rate 0.1250 kg/ha) | AMBEL preemergence herbicidal rating ([17]; Rate 0.0620 kg/ha) | CASOB preemergence herbicidal rating ([18]; Rate 0.0620 kg/ha) | IPOHE preemergence herbicidal rating ([19]; Rate 0.0620 kg/ha) | IPOHE preemergence herbicidal rating ([19]; Rate 0.1250 kg/ha) | IPOHE preemergence herbicidal rating ([19]; Rate 0.2500 kg/ha)
6.5: Postemergence herbicidal rating, ZEAMX ([8]; rate 0.0620 kg/ha)
1.0: Postemergence herbicidal rating, GALAP ([6]; rate 0.0320 kg/ha) | Postemergence herbicidal rating, ECHCG ([7]; rate 0.0620 kg/ha) | GALAP preemergence herbicidal rating ([14]; Rate 0.2500 kg/ha) | CASOB preemergence herbicidal rating ([18]; Rate 0.1250 kg/ha)
2.0: Postemergence herbicidal rating, CHEAL ([2]; rate 0.0320 kg/ha) | Postemergence herbicidal rating, AMBEL ([3]; rate 0.0320 kg/ha) | Postemergence herbicidal rating, CASOB ([4]; rate 0.1250 kg/ha) | Postemergence herbicidal rating, GALAP ([6]; rate 0.0620 kg/ha) | Postemergence herbicidal rating, GALAP ([6]; rate 0.1250 kg/ha)
3.0: herbicidal rating, ECHORC ([12]; rate 0.1250 kg/ha)
6.0: Postemergence herbicidal rating, CHEAL ([2]; rate 0.1250 kg/ha) | Postemergence herbicidal rating, AMBEL ([3]; rate 0.0620 kg/ha) | Postemergence herbicidal rating, IPOHE ([10]; rate 0.0320 kg/ha) | CASOB preemergence herbicidal rating ([18]; Rate 0.2500 kg/ha)
